This note sets out measurements from patent US20250101041A1, “POSITIVE ALLOSTERIC MODULATORS OF THE MUSCARINIC ACETYLCHOLINE RECEPTOR M4” (Vanderbilt University, priority 2022, published 2025).

In this experiment the target is T1, human mAChR M4 (Homo sapiens, UniProt P08173).
T1 construct: expressed in transfected cells; host or cells: CHO-K1 (American Type Culture Collection), stably expressing hM4 and Gqi5
T1 sequence (P08173 1-479): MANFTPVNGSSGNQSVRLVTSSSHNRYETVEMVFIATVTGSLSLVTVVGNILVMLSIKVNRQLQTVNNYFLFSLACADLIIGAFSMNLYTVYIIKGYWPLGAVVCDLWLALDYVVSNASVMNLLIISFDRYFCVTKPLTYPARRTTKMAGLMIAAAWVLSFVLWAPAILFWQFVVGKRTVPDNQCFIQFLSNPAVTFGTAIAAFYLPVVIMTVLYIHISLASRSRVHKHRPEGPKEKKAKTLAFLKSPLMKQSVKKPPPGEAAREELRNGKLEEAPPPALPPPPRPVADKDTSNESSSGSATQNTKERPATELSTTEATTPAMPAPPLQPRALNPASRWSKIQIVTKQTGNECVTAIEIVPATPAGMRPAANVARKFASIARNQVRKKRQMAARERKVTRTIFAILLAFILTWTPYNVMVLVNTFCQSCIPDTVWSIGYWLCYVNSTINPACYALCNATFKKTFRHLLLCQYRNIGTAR
In words: mAChR M4 cell-based functional assay: calcium mobilization (Fluo-4, FDSS), potentiation of EC20 acetylcholine response in hM4-Gqi5 CHO-K1 cells. Particulars: human M4; for Emax at 30 µM: CHO-K1, % ACh maximum at 30 μM; for EC50: potentiation of EC20 acetylcholine response, calcium mobilization. An outline of the steps: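 CHO-K1 cells stably co-expressing human M4 and chimeric Gqi5, loaded with Fluo-4 AM (50 min, 37 °C). Compounds in 11-point 1:3 series added first; EC20 acetylcholine added at 144 s and again at 230 s. Calcium read on FDSS at 1 Hz; EC50 and Emax from four-parameter logistic fit of potentiated EC20 response.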
A general note: Calcium assays in cells follow changes in intracellular calcium, usually with a dye or a luminescent sensor.

As a reminder, the Emax is the size of the effect at its maximum, as opposed to the concentration needed. Broadly, the EC50 is the midpoint of the concentration-response curve. In the case of `Cc1cc(=O)n2nc(N3CCc4ncc(-c5ccccc5C(F)(F)F)cc4C3)c(C)c(C)c2n1` [Compound 1-277, 2,8,9-trimethyl-7-(3-(2-(trifluoromethyl)phenyl)-7,8-dihydro-1,6-naphthyridin-6(5H)-yl)-4H-pyrimido[1,2-b] pyridazin-4-one], the Emax at 30 µM was 57% and the EC50 amounted to 1120 nM.

Consider `Cc1cc2nc(C(C)(C)O)cc(=O)n2nc1N1CCc2ncc(C(F)(F)F)cc2C1` [Compound 1-195, 2-(2-hydroxypropan-2-yl)-8-methyl-7-(3-(trifluoromethyl)-7,8-dihydro-1,6-naphthyridin-6(5H)-yl)-4H-pyrimido[1,2-b] pyridazin-4-one], for which the Emax at 30 µM is 82% and the EC50 turned out to be 185 nM.

On to `Cc1cc2nccc(=O)n2nc1N1CCc2ncc(-c3ncc(C)n3C)cc2C1` [Compound 1-391, 7-(3-(1,5-dimethyl-1H-imidazol-2-yl)-7,8-dihydro-1,6-naphthyridin-6(5H)-yl)-8-methyl-4H-pyrimido[1,2-b]pyridazin-4-one], for which the maximal response (Emax) at 30 µM amounted to 49%.

`Cc1cc(=O)n2nc(N3CCc4ncc(-c5ccccc5OC(F)(F)F)cc4C3)c(C)cc2n1` [Compound 1-254, 2,8-dimethyl-7-(3-(2-(trifluoromethoxy)phenyl)-7,8-dihydro-1,6-naphthyridin-6(5H)-yl)-4H-pyrimido[1,2-b]pyridazin-4-one]: the Emax at 30 µM was 48% and the half-maximal effective concentration (EC50) was determined as 1370 nM.

Regarding `COc1ccc(Nc2cnc3c(c2)CN(c2nn4c(=O)ccnc4cc2C)CC3)cn1` [Compound 2-134, 7-(3-((6-methoxypyridin-3-yl)amino)-7,8-dihydro-1,6-naphthyridin-6(5H)-yl)-8-methyl-4H-pyrimido[1,2-b]pyridazin-4-one], the Emax at 30 µM was determined as 90% and the 50% effective concentration (EC50) is 290 nM.

In the case of `COCc1cc(=O)n2nc(N3CCc4ncc(-c5cc(F)ccc5F)cc4C3)c(C)cc2n1` [Compound 1-336, 7-(3-(2,5-difluorophenyl)-7,8-dihydro-1,6-naphthyridin-6(5H)-yl)-2-(methoxymethyl)-8-methyl-4H-pyrimido[1,2-b] pyridazin-4-one], the Emax at 30 µM was 66% and the EC50 was determined as 357 nM.

Take `Cc1ccncc1Nc1cnc2c(c1)CN(c1nn3c(=O)ccnc3cc1C)CC2` [Compound 2-124, 8-methyl-7-(3-((4-methylpyridin-3-yl)amino)-7,8-dihydro-1,6-naphthyridin-6(5H)-yl)-4H-pyrimido[1,2-b]pyridazin-4-one]: the maximal response (Emax) at 30 µM was found to be 87% and the EC50 was 163 nM.

Turning to `COCc1cc(=O)n2nc(N3CCc4ncc(-c5cnn(C6CC6)c5)cc4C3)c(C)c(C)c2n1` [Compound 1-263, 7-(3-(1-cyclopropyl-1H-pyrazol-4-yl)-7,8-dihydro-1,6-naphthyridin-6(5H)-yl)-2-(methoxymethyl)-8,9-dimethyl-4H-pyrimido[1,2-b]pyridazin-4-one], the maximal response (Emax) at 30 µM came to 86% and the EC50 turned out to be 96 nM.

For the compound `Cc1cc2nc(C(F)F)cc(=O)n2nc1N1CCc2ncc(-c3cn(C)nc3C)cc2C1` [Compound 1-34, 2-(difluoromethyl)-7-(3-(1,3-dimethyl-1H-pyrazol-4-yl)-7,8-dihydro-1,6-naphthyridin-6(5H)-yl)-8-methyl-4H-pyrimido[1,2-b]pyridazin-4-one], the Emax at 30 µM stood at 90% and the EC50 was determined as 73 nM.

Turning to `COc1nccc(-c2cnc3c(c2)CN(c2nn4c(=O)ccnc4cc2C)CC3)c1C` [Compound 1-427, 7-(3-(2-methoxy-3-methylpyridin-4-yl)-7,8-dihydro-1,6-naphthyridin-6(5H)-yl)-8-methyl-4H-pyrimido[1,2-b]pyridazin-4-one], the Emax at 30 µM amounted to 78% and the concentration for a half-maximal effect (EC50) amounted to 1520 nM.

On to `Cc1cc(=O)n2nc(N3CCc4ncc(-c5ccnn5C)cc4C3)c(C)cc2n1` [Compound 1-29, 2,8-dimethyl-7-(3-(1-methyl-1H-pyrazol-5-yl)-7,8-dihydro-1,6-naphthyridin-6(5H)-yl)-4H-pyrimido[1,2-b]pyridazin-4-one], for which the Emax at 30 µM was found to be 85% and the EC50 was found to be 146 nM.

For `Cc1cc2nccc(=O)n2nc1N1CCc2ncc(-c3cnc(C)n3C)cc2C1` [Compound 1-323, 7-(3-(1,2-dimethyl-1H-imidazol-5-yl)-7,8-dihydro-1,6-naphthyridin-6(5H)-yl)-8-methyl-4H-pyrimido[1,2-b]pyridazin-4-one], the Emax at 30 µM turned out to be 71% and the concentration giving a half-maximal response (EC50) stood at 1040 nM.

Take `Cc1cc2nccc(=O)n2nc1N1CCc2ncc(N3c4ccc(F)cc4OCC3C)cc2C1` (centres unmarked) [Compound 2-52, 7-(3-(7-fluoro-3-methyl-2,3-dihydro-4H-benzo[b][1,4]oxazin-4-yl)-7,8-dihydro-1,6-naphthyridin-6(5H)-yl)-8-methyl-4H-pyrimido[1,2-b]pyridazin-4-one]: the maximal effect (Emax) at 30 µM was determined as 89% and the EC50 was found to be 16 nM.

As for `Cc1cc2nccc(=O)n2nc1N1CCc2ncc(-c3cnn(C4CC4)c3)cc2C1` [Compound 1-8, 7-(3-(1-cyclopropyl-1H-pyrazol-4-yl)-7,8-dihydro-1,6-naphthyridin-6(5H)-yl)-8-methyl-4H-pyrimido[1,2-b]pyridazin-4-one], the maximal effect (Emax) at 30 µM is 81% and the concentration giving a half-maximal response (EC50) worked out at 308 nM.

Consider `Cc1cc(=O)n2nc(N3CCc4ncc(-c5ccc(F)nc5)cc4C3)c(C)cc2n1` [Compound 1-212, 7-(3-(6-fluoropyridin-3-yl)-7,8-dihydro-1,6-naphthyridin-6(5H)-yl)-2,8-dimethyl-4H-pyrimido[1,2-b]pyridazin-4-one], for which the Emax at 30 µM is 83% and the 50% effective concentration (EC50) is 867 nM.

Regarding `CCc1ccncc1-c1cnc2c(c1)CN(c1nn3c(=O)ccnc3c(C)c1C)CC2` [Compound 1-96, 7-(3-(4-ethylpyridin-3-yl)-7,8-dihydro-1,6-naphthyridin-6(5H)-yl)-8,9-dimethyl-4H-pyrimido[1,2-b]pyridazin-4-one], the Emax at 30 µM stood at 63% and the EC50 amounted to 37 nM.

In the case of `Cc1cc2nccc(=O)n2nc1N1CCc2ncc(-c3cn(C)nn3)cc2C1` [Compound 1-321, 8-methyl-7-(3-(1-methyl-1H-1,2,3-triazol-4-yl)-7,8-dihydro-1,6-naphthyridin-6(5H)-yl)-4H-pyrimido[1,2-b]pyridazin-4-one], the maximal effect (Emax) at 30 µM is 61% and the EC50 worked out at 2180 nM.

As for `Cc1cc2nccc(=O)n2nc1N1CCc2ncc(Nc3cccnc3F)cc2C1` [Compound 2-78, 7-(3-((2-fluoropyridin-3-yl)amino)-7,8-dihydro-1,6-naphthyridin-6(5H)-yl)-8-methyl-4H-pyrimido[1,2-b]pyridazin-4-one], the maximal response (Emax) at 30 µM is 103% and the concentration giving a half-maximal response (EC50) is 102 nM.

In the case of `Cc1cnccc1-c1cnc2c(c1)CN(c1nn3c(=O)cc(C(F)F)nc3c(C)c1C)CC2` [Compound 1-307, 2-(difluoromethyl)-8,9-dimethyl-7-(3-(3-methylpyridin-4-yl)-7,8-dihydro-1,6-naphthyridin-6(5H)-yl)-4H-pyrimido[1,2-b]pyridazin-4-one], the maximal effect (Emax) at 30 µM is 88% and the EC50 was 69 nM.

On to `Cc1cc2nccc(=O)n2nc1N1CCc2ncc(NCC3CCOCC3)cc2C1` [Compound 2-91, 8-methyl-7-(3-(((tetrahydro-2H-pyran-4-yl)methyl)amino)-7,8-dihydro-1,6-naphthyridin-6(5H)-yl)-4H-pyrimido[1,2-b]pyridazin-4-one], for which the maximum response (Emax) at 30 µM was found to be 80% and the EC50 came out at 1820 nM.

Take `Cc1cc(=O)n2nc(N3CCc4ncc(-c5cnn(CC(F)(F)F)c5)cc4C3)c(C)cc2n1` [Compound 1-291, 2,8-dimethyl-7-(3-(1-(2,2,2-trifluoroethyl)-1H-pyrazol-4-yl)-7,8-dihydro-1,6-naphthyridin-6(5H)-yl)-4H-pyrimido[1,2-b]pyridazin-4-one]: the maximal effect (Emax) at 30 µM worked out at 82% and the EC50 amounted to 356 nM.

As for `COc1ccc(-c2cnc3c(c2)CN(c2nn4c(=O)cc(C)nc4c(C)c2C)CC3)cn1` [Compound 1-186, 7-(3-(6-methoxypyridin-3-yl)-7,8-dihydro-1,6-naphthyridin-6(5H)-yl)-2,8,9-trimethyl-4H-pyrimido[1,2-b]pyridazin-4-one], the Emax at 30 µM is 84% and the half-maximal effective concentration (EC50) was determined as 460 nM.

With `Cc1cc(=O)n2nc(N3CCc4ncc(-c5cc(F)ccc5C)cc4C3)c(C)cc2n1` [Compound 1-210, 7-(3-(5-fluoro-2-methylphenyl)-7,8-dihydro-1,6-naphthyridin-6(5H)-yl)-2,8-dimethyl-4H-pyrimido[1,2-b]pyridazin-4-one], the Emax at 30 µM was determined as 84% and the EC50 came out at 287 nM.

In the case of `Cc1cc(=O)n2nc(N3CCc4ncc(-c5cnn(C6COC6)c5)cc4C3)c(C)cc2n1` [Compound 1-287, 2,8-dimethyl-7-(3-(1-(oxetan-3-yl)-1H-pyrazol-4-yl)-7,8-dihydro-1,6-naphthyridin-6(5H)-yl)-4H-pyrimido[1,2-b]pyridazin-4-one], the Emax at 30 µM stood at 85% and the EC50 came to 1210 nM.
